12 molecules from patent US11999727B2 (Tango Therapeutics, Inc., priority 2020, dated 2024) can be followed below.

For experiment [1], the system named is HAP1 MTAP-deleted cell line. The experiment in a line: Viability assay, MTAP-deleted cell line. The experiment is classed as cell-based. The conditions noted are these: Homo sapiens, read-out: HAP1 MTAP deleted viability. From the text:
Table 1 additionally indicates IC50 values in a viability assay for the MTAP-deleted cell line (column 10), indicating the effect of treatment with compound on cell survival.

In experiment [2] the target is T1, PRMT5 (Homo sapiens, UniProt O14744).
T1 construct: purchased Viva (custom protein)
Nature of the experiment: PRMT5 biochemical IC50 assay with no cofactor. The conditions noted are these: PRMT5, no cofactor; read-out: No Cofactor/rel IC50. From the text:
Table 1 indicates IC50 values (μM) against PRMT5 for exemplary compounds in the presence of SAM as cofactor, with no cofactor, and with MTA as cofactor, respectively (columns 4-6). […] Ki values can be calculated from the IC50 values as described in the Examples section. As detailed in the Examples section, for the assay performed in the presence of SAM, IC50=Ki×1.5 (Ki=IC50/1.5).

Experiment [3] has as its target T1, PRMT5. The experiment in a line: PRMT5 biochemical IC50 assay with MTA as cofactor. To be noted: PRMT5, MTA as cofactor; read-out: MTA IC50.
Experiment [4] deals with T1, PRMT5. The experiment in a line: PRMT5 biochemical IC50 assay with SAM as cofactor. The conditions noted are these: PRMT5, SAM as cofactor; read-out: SAM IC50.
The subject of experiment [5] is HAP1 MTAP-intact cell line. The experiment in a line: SDMA in-cell western assay, HAP1 MTAP-intact. Format: cell-based. The conditions noted are these: Homo sapiens, HAP1, SDMA in-cell western, HAP1 MTAP-intact; read-out: MTAP HAP1 intact IC50. In a few lines: (§1)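 Isogenic HAP1 pair: the MTAP-intact line expresses endogenous MTAP, and the deleted line is MTAP-null. Symmetric dimethylarginine was detected by in-cell western and IC50 values derived for each line.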

Experiment [6] has as its system HAP1 MTAP-deleted cell line. Nature of the experiment: SDMA in-cell western assay, HAP1 MTAP-deleted. The experiment is classed as cell-based. The conditions noted are these: for IC50: Homo sapiens, HAP1, SDMA in-cell western, HAP1 MTAP-deleted; for MTAP intact/deleted ratio: IC50 ratio HAP1 MTAP-intact / HAP1 MTAP-deleted, SDMA in-cell western. In a few lines:
as §1

The mark [7] stands for this setting: HAP1, viability assay, MTAP-deleted cell line.
The mark [8] stands for this setting: read-out: HAP1 MTAP deleted IC50.
The mark [9] stands for this setting: HAP1, viability IC50, MTAP-deleted cell line.
Where [10] appears, read: read-out: HAP 1 MTAP deleted IC50.

T1 sequence (O14744 whole entry): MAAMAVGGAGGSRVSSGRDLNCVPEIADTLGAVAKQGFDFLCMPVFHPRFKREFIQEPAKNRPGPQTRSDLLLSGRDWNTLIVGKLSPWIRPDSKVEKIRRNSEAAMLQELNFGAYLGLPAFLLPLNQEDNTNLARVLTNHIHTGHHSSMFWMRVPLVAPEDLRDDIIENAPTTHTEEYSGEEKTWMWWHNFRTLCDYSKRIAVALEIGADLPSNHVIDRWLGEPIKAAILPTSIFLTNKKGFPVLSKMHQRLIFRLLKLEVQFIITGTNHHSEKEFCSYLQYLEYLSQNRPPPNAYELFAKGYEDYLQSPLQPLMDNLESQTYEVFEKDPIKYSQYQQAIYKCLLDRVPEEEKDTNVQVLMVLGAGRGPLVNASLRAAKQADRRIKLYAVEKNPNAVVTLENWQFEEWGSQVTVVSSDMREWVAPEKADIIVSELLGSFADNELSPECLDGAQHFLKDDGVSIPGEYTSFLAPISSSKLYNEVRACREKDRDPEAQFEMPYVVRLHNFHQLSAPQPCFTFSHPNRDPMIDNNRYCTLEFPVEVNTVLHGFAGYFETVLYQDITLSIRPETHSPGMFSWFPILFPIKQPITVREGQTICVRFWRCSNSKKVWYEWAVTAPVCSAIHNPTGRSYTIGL
T1 sequence (Q9BQA1 whole entry partner): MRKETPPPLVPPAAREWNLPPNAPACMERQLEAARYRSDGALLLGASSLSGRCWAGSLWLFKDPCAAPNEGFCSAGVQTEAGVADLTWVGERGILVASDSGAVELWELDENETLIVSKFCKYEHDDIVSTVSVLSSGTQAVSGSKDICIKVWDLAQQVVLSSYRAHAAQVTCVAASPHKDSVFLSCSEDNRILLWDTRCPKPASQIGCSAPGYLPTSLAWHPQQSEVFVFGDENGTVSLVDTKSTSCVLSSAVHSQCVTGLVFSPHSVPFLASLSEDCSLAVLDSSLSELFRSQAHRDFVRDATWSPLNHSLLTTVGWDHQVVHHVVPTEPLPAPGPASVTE

`Cc1cc(NC(=O)C(=O)N2C[C@H](C)CC[C@H]2c2ccc(-c3cn[nH]c3)cc2)cnc1N` (racemic) [Compound 525, rac N-(6-amino-5-methyl-3-pyridyl)-2-[(2S,5R)-5-methyl-2-[4-(1H-pyrazol-4-yl)phenyl]-1-piperidyl]-2-oxo-acetamide]: the IC50 in experiment [1] (setting [7]) is < 1000 nM; at PRMT5 [2] it was 50 to 500 nM; at PRMT5 [3], 50 to 500 nM; at PRMT5 [4] it was > 500 nM; in experiment [5], 100 to 1000 nM; in experiment [6] (setting [8]), < 100 nM. Further, the MTAP intact/deleted ratio result in experiment [6] is given as “A (an IC50 ratio greater than or equal to 10 fold)”.

Take `Cc1cc(NC(=O)C(=O)N2C[C@H](C)CC[C@H]2c2ccc(-c3ccn[nH]3)cc2)cnc1N` (racemic) [Compound 526, rac N-(6-amino-5-methyl-3-pyridyl)-2-[(2S,5R)-5-methyl-2-[4-(1H-pyrazol-5-yl)phenyl]-1-piperidyl]-2-oxo-acetamide]: the IC50 in experiment [1] (setting [7]) is < 1000 nM; on PRMT5 [2], 50 to 500 nM; at PRMT5 [3] it was 50 to 500 nM; at PRMT5 [4], 50 to 500 nM; in experiment [5], 100 to 1000 nM; in experiment [6] (setting [8]), < 100 nM. Moreover, the MTAP intact/deleted ratio entry in experiment [6] is “A (an IC50 ratio greater than or equal to 10 fold)”.

As for `C[C@@H]1CCC[C@@H]2CN(C(=O)C(=O)Nc3cncc(C(N)=O)c3)CC[C@@H]21` (racemic) [Compound 536, 5-(2-(5-methyloctahydroisoquinolin-2(1H)-yl)-2-oxoacetamido)nicotinamide], the IC50 in experiment [1] (setting [9]) was > 10000 nM; on PRMT5 [2] it was > 500 nM; on PRMT5 [3] it was 50 to 500 nM; on PRMT5 [4], 50 to 500 nM; in experiment [5], > 1000 nM; in experiment [6] (setting [10]) it was 100 to 1000 nM. Besides, in experiment [6], the MTAP intact/deleted ratio result is “A (an IC50 ratio greater than or equal to 10 fold)”.

For the molecule `C[C@@H]1CC[C@@H](c2ccc(F)c(O)c2)N(C(=O)C(=O)Nc2cncc(C(N)=O)c2)C1` (racemic) [Compound 540, 5-[[2-[(2R,5S)-2-(4-fluoro-3-hydroxy-phenyl)-5-methyl-1-piperidyl]-2-oxo-acetyl]amino]pyridine-3-carboxamide], the IC50 in experiment [1] (setting [9]) is < 1000 nM; at PRMT5 [2], 50 to 500 nM; at PRMT5 [3] it was < 50 nM; on PRMT5 [4] it was 50 to 500 nM; in experiment [5], > 1000 nM; in experiment [6] (setting [10]) it was < 100 nM. In addition, the MTAP intact/deleted ratio result in experiment [6] is listed as “A (an IC50 ratio greater than or equal to 10 fold)”.

With `C[C@@H]1CN(C(=O)C(=O)Nc2cncc(C(N)=O)c2)C[C@@H]2CCCC[C@@H]21` (racemic) [Compound 541, 5-[[2-[(4S,4aR,8aR)-4-Methyl-3,4,4a,5,6,7,8,8a-octahydro-1H-isoquinolin-2-yl]-2-oxo-acetyl]amino]pyridine-3-carboxamide], the IC50 was 1000 to 10000 nM in experiment [1] (setting [9]); > 500 nM on PRMT5 [2]; 50 to 500 nM at PRMT5 [3]; 50 to 500 nM on PRMT5 [4]; > 1000 nM in experiment [5]; 100 to 1000 nM in experiment [6] (setting [10]). Further, the MTAP intact/deleted ratio entry in experiment [6] is given as “A (an IC50 ratio greater than or equal to 10 fold)”.

On to `C[C@@H]1CN(C(=O)C(=O)Nc2cncc(C(N)=O)c2)C[C@H]2CCCC[C@H]21` (racemic) [Compound 542, 5-[[2-[(4S,4aS,8aS)-4-Methyl-3,4,4a,5,6,7,8,8a-octahydro-1H-isoquinolin-2-yl]-2-oxo-acetyl]amino]pyridine-3-carboxamide], for which the IC50 is > 10000 nM in experiment [1] (setting [9]); > 500 nM at PRMT5 [2]; 50 to 500 nM at PRMT5 [3]; 50 to 500 nM at PRMT5 [4]; > 1000 nM in experiment [5]; > 1000 nM in experiment [6] (setting [10]). In experiment [6], the MTAP intact/deleted ratio result is given as “B (an IC50 ratio greater than or equal to 3 fold but lower than 10 fold)”.

For the molecule `C[C@@H]1CN(C(=O)C(=O)Nc2cncc(C(N)=O)c2)C[C@H]2CCCC[C@@H]21` (racemic) [Compound 543, 5-[[2-[(4S,4aR,8aS)-4-Methyl-3,4,4a,5,6,7,8,8a-octahydro-1H-isoquinolin-2-yl]-2-oxo-acetyl]amino]pyridine-3-carboxamide], the IC50 in experiment [1] (setting [9]) was 1000 to 10000 nM; at PRMT5 [2], 50 to 500 nM; on PRMT5 [3] it was 50 to 500 nM; on PRMT5 [4], 50 to 500 nM; in experiment [5], > 1000 nM; in experiment [6] (setting [10]) it was 100 to 1000 nM. Further, the MTAP intact/deleted ratio entry in experiment [6] is “A (an IC50 ratio greater than or equal to 10 fold)”.

For the molecule `CC(C)c1cc([C@@H]2CC[C@@H](C)CN2C(=O)C(=O)Nc2cncc(C(N)=O)c2)ccc1O` (racemic) [Compound 552, 5-[[2-[(2S,5R)-2-(4-Hydroxy-3-isopropyl-phenyl)-5-methyl-1-piperidyl]-2-oxo-acetyl]amino]pyridine-3-carboxamide], the IC50 in experiment [1] (setting [9]) is < 1000 nM; at PRMT5 [2], 50 to 500 nM; on PRMT5 [3] it was < 50 nM; at PRMT5 [4], 50 to 500 nM; in experiment [5] it was > 1000 nM; in experiment [6] (setting [10]) it was < 100 nM. In addition, the MTAP intact/deleted ratio result in experiment [6] was “A (an IC50 ratio greater than or equal to 10 fold)”.

For `Cc1ccc([C@@H]2CC[C@@H](C)CN2C(=O)C(=O)Nc2cncc(C(N)=O)c2)cc1O` (racemic) [Compound 554, 5-[[2-[(2S,5R)-2-(3-hydroxy-4-methyl-phenyl)-5-methyl-1-piperidyl]-2-oxo-acetyl]amino]pyridine-3-carboxamide], the IC50 was 1000 to 10000 nM in experiment [1] (setting [9]); 50 to 500 nM at PRMT5 [2]; < 50 nM on PRMT5 [3]; 50 to 500 nM at PRMT5 [4]; > 1000 nM in experiment [5]; < 100 nM in experiment [6] (setting [10]). In addition, the MTAP intact/deleted ratio result in experiment [6] is “A (an IC50 ratio greater than or equal to 10 fold)”.

For the molecule `Cc1cc(NC(=O)C(=O)N2C[C@H](C)CC[C@H]2c2ccc(F)c(O)c2)cnc1N` (racemic) [Compound 555, N-(6-amino-5-methyl-3-pyridyl)-2-[(2R,5S)-2-(4-fluoro-3-hydroxy-phenyl)-5-methyl-1-piperidyl]-2-oxo-acetamide], the IC50 in experiment [1] (setting [9]) is < 1000 nM; on PRMT5 [2], 50 to 500 nM; on PRMT5 [3], < 50 nM; at PRMT5 [4], 50 to 500 nM; in experiment [5], 100 to 1000 nM; in experiment [6] (setting [10]), < 100 nM. For the same molecule, the MTAP intact/deleted ratio entry in experiment [6] was “A (an IC50 ratio greater than or equal to 10 fold)”.

For `Cc1cc(NC(=O)C(=O)N2C[C@H](C)CC[C@H]2c2ccc(-c3ccn[nH]3)s2)cnc1N` (racemic) [Compound 556, N-(6-amino-5-methyl-3-pyridyl)-2-[(2R,5S)-5-methyl-2-[5-(1H-pyrazol-5-yl)-2-thienyl]-1-piperidyl]-2-oxo-acetamide], the IC50 in experiment [1] (setting [9]) was < 1000 nM; on PRMT5 [2], 50 to 500 nM; at PRMT5 [3], 50 to 500 nM; at PRMT5 [4] it was 50 to 500 nM; in experiment [5], 100 to 1000 nM; in experiment [6] (setting [10]), < 100 nM. The MTAP intact/deleted ratio entry in experiment [6] was “A (an IC50 ratio greater than or equal to 10 fold)”.

Take `Cc1cncc(NC(=O)C(=O)N2C[C@H](C)CC[C@H]2c2ccc(O)cc2)c1` (racemic) [Compound 557, rac-2-((2R,5S)-2-(4-hydroxyphenyl)-5-methylpiperidin-1-yl)-N-(5-methylpyridin-3-yl)-2-oxoacetamide]: the IC50 is > 10000 nM in experiment [1] (setting [9]); 50 to 500 nM on PRMT5 [2]; 50 to 500 nM at PRMT5 [3]; 50 to 500 nM at PRMT5 [4]; > 1000 nM in experiment [5]; 100 to 1000 nM in experiment [6] (setting [10]). Besides, the MTAP intact/deleted ratio result in experiment [6] was “A (an IC50 ratio greater than or equal to 10 fold)”.
